From ChEMBL document CHEMBL1134028, “1,2,5-Thiadiazole derivatives are potent and selective ligands at human 5-HT1A receptors” (Bioorg Med Chem Lett, 2001) come the findings set out here.

Assay [1] has as its target Adrenergic receptor alpha-1 (Rattus norvegicus) (UniProt P15823+P23944+P43140). As to the kind of experiment: Compound was tested for percent inhibition at Alpha-1 adrenergic receptor in rat at 100 nM concentration.
The subject of assay [2] is CHO. Description: Inhibitory activity determined by the compound ability to reverse the forskolin-stimulated turnover of cAMP in CHO cells. It counts as functional, cell-based. The conditions noted are these: Cricetulus griseus.
Assay [3] addresses T1, 5-hydroxytryptamine receptor 1A (Homo sapiens, UniProt P08908).
T1 sequence (P08908 whole entry): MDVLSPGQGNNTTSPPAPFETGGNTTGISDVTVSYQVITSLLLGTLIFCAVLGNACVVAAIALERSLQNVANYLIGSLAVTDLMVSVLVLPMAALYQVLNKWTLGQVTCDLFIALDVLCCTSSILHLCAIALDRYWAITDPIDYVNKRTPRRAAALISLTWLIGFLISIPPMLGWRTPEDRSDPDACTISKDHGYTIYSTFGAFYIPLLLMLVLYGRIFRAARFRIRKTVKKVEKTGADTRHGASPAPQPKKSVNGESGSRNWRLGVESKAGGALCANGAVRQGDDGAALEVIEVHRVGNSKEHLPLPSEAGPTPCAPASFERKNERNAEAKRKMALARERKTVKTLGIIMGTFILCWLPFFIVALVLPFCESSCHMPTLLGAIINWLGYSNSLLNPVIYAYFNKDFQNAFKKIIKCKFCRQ
Description: Ability to displace [3H]8-OH-DPAT from CHO cells stably transfected with human 5-hydroxytryptamine 1A receptor. Type of assay: cell-based.

The target in assay [4] is D(2) dopamine receptor (Rattus norvegicus) (UniProt P61169). Description: Percent inhibition towards dopamine D2 receptor at 100 nM concentration.
Assay [5] relates to CHO. As to the kind of experiment: Effective concentration for intrinsic activity determined by the compound ability to reverse the forskolin-stimulated turnover of cAMP in CHO cells. The note with it: Cricetulus griseus.
Assay [6] relates to CHO. As to the kind of experiment: Intrinsic activity determined by the compound ability to reverse the forskolin-stimulated turnover of cAMP in CHO cells. It counts as functional. The note with it: Cricetulus griseus.
For assay [7], the target named is T2, 5-hydroxytryptamine receptor 1A (Homo sapiens) (UniProt P08908).
T2 sequence (whole entry): T1 sequence (P08908 whole entry)
As to the kind of experiment: Ability to displace [3H]-8-OH-DPAT from CHO cells stably transfected with human 5-hydroxytryptamine 1A receptor at a concentration of 1 uM. It counts as cell-based.

The target in the next assay is T3, D(4) dopamine receptor (Homo sapiens, UniProt P21917).
T3 sequence (P21917 whole entry): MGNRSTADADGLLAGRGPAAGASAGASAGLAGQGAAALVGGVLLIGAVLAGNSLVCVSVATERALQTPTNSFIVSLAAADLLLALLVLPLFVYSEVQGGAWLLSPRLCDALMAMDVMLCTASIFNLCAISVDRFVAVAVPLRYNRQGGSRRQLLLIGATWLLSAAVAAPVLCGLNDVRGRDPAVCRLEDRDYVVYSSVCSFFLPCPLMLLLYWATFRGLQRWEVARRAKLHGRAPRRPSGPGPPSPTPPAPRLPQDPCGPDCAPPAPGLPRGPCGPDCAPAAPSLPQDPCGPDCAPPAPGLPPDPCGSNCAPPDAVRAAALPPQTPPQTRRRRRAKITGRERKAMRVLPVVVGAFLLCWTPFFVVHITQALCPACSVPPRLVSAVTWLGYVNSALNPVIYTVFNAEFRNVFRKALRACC
As to the kind of experiment: Percent inhibition towards dopamine D4 receptor.

Another assay addresses D(2) dopamine receptor (Rattus norvegicus, UniProt P61169). As to the kind of experiment: Percent inhibition towards dopamine D2 receptor.
The target in a further assay is D(3) dopamine receptor (Homo sapiens, UniProt P35462). Description: Percent inhibition towards dopamine D3 receptor.
Sequence of D(3) dopamine receptor (P35462 whole entry): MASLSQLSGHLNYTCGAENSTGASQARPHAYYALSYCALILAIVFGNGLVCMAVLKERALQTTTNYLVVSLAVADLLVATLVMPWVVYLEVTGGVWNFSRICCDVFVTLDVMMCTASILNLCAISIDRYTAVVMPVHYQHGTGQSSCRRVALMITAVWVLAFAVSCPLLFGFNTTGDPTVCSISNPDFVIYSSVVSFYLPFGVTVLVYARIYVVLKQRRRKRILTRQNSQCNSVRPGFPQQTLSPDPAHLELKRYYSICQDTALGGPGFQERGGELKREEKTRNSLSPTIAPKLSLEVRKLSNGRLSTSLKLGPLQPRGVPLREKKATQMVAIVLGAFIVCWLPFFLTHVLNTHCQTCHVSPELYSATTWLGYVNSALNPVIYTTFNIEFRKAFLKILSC

Sequence of D(2) dopamine receptor (Rattus norvegicus) (P61169 whole entry): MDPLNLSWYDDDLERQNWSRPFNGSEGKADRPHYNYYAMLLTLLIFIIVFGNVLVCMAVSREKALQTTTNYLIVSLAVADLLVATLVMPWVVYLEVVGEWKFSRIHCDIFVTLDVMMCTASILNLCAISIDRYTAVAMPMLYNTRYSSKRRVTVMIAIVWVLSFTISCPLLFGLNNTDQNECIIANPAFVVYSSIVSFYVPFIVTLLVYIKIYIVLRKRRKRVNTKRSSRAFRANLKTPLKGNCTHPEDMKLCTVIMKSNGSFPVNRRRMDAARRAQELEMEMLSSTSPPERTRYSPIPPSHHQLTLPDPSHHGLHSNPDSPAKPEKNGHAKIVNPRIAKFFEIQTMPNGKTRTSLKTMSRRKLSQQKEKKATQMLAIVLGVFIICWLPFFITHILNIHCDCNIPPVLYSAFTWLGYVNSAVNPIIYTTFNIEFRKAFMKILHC
Sequence of D(2) dopamine receptor (P61169 whole entry): as above

As to `CN(C(=O)C1CCCCC1)[C@H](Cc1ccccc1)CN1CCN(c2nsnc2Cl)CC1`, the inhibition in [1] came to 0%. The IC50 with CHO [2] worked out at 49.3 nM.

The compound `COc1nsnc1N1CCN(C[C@@H](Cc2ccccc2)N(C)C(=O)C2CCCCC2)CC1` registered a Ki in assay [3] of 1.5 nM. For the same compound, the inhibition was 0% in assay [1] and 11% in [4]. The compound also came in with an IC50 with CHO [2] of 72.7 nM.

Compound `O=C(N[C@@H](Cc1ccccc1)CN1CCN(c2nsnc2Cl)CC1)C1CCCCC1` returned an inhibitory constant (Ki) in assay [3] of 0.8 nM. For the same compound, the inhibition in assay [1] was 17%. For the same compound, the EC50 in the assay on CHO [5] is 4.6 nM. For the same compound, in the assay on CHO [6], the Emax is 93%.

`COc1nsnc1N1CCN(C[C@@H](Cc2ccccc2)N(C)C(=O)N2CCOCC2)CC1` returned an inhibition in assay [7] of 46%.

In assay [3], `COc1nsnc1N1CCN(C[C@@H](Cc2cccnc2)NC(=O)C2(C)CCCCC2)CC1` gave a Ki of 3 nM. Moreover, the IC50 in the assay with CHO [2] turned out to be 113 nM; on D(4) dopamine receptor it was 1100 nM; against D(2) dopamine receptor, 3520 nM; on D(3) dopamine receptor, 489 nM. The Emax in the assay with CHO [6] came to 0%.

Turning to `COc1nsnc1N1CCN(C[C@@H](Cc2ccccc2)N(C)C(=O)c2ccccc2)CC1`, the Ki in [3] is 9.9 nM. In assay [1], this compound had an inhibition of 15%. The compound also registered a concentration for half-maximal inhibition (IC50) with CHO [2] of 6.4 nM. In the assay on CHO [6], the maximal response (Emax) came out at 0%.

As for `O=C(N[C@@H](Cc1ccccc1)CN1CCN(c2nsnc2Cl)CC1)c1ccccn1`, the inhibition in [7] amounted to 47%.
